Reference: PubChem BioAssay AID330 (DTP/NCI, 2004)
“And” between values parts separate entries of the source, which are not always exact repeats. Identical values can stand only once. Toxic doses and inconclusive results are not listed. Rule for the calls: active = survival T/C of 150% or more; inactive = T/C below 125% in these data.

System: P388 leukemia ip, CD2F1 mice, survival T/C
Assay: NCI In Vivo Anticancer Drug Screen. Data for tumor model P388 Leukemia (intraperitoneal) in CD2F1 (CDF1) mice
Conditions: endpoint: median survival time, higher = longer survival
Summary of the method: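 Mice carrying the transplanted tumor received test compound or vehicle. Survival was recorded in each group, and the value is the treated-group measurement divided by that of the vehicle-treated control group.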

[1] = dose: 50.0 mg/kg/injection, schedule: Q04DX003 (ip), vehicle: saline with Tween-80
[2] = dose: 50.0 mg/kg/injection, schedule: Q01DX009 (ip), vehicle: saline with Tween-80
[3] = dose: 100.0 mg/kg/injection, schedule: Q01DX009 (ip), vehicle: saline with Tween-80
[4] = dose: 200.0 mg/kg/injection, schedule: Q01DX009 (ip), vehicle: saline with Tween-80
[5] = dose: 50.0 mg/kg/injection, schedule: Q01DX005 (ip), vehicle: Klucel (hydroxypropylcellulose) (HPC)
[6] = dose: 60.0 mg/kg/injection, schedule: Q01DX005 (ip), vehicle: saline with Tween-80
[7] = dose: 120.0 mg/kg/injection, schedule: Q01DX005 (ip), vehicle: saline with Tween-80
[8] = dose: 240.0 mg/kg/injection, schedule: Q01DX005 (ip), vehicle: saline with Tween-80

Measured: T/C

CNC(=O)OCc1nn(-c2ccc(OC)cc2)c(C)c1COC(=O)NC
inactive: dose: 12.5 mg/kg/injection, schedule: Q01DX009 (ip), vehicle: distilled water + Tween-80 92 % of control | dose: 25.0 mg/kg/injection, schedule: Q01DX009 (ip), vehicle: distilled water + Tween-80 90 % of control | dose: 50.0 mg/kg/injection, schedule: Q01DX009 (ip), vehicle: distilled water + Tween-80 90 % of control | dose: 100.0 mg/kg/injection, schedule: Q01DX009 (ip), vehicle: distilled water + Tween-80 90 % of control | dose: 200.0 mg/kg/injection, schedule: Q01DX009 (ip), vehicle: distilled water + Tween-80 87 % of control

Cc1cnc(NCCCCCCCCNc2ncc(C)c(-c3ccccc3O)n2)nc1-c1ccccc1O
inactive: dose: 100.0 mg/kg/injection, schedule: Q04DX003 (ip), vehicle: saline 95 % of control | dose: 200.0 mg/kg/injection, schedule: Q04DX003 (ip), vehicle: saline 93 % of control | dose: 400.0 mg/kg/injection, schedule: Q04DX003 (ip), vehicle: saline 89 % of control

CNC(=O)O[C@H]1C(=O)O[C@@H]2C[C@H]3C(C)=C(O)C(=O)C[C@]3(C)[C@H]3[C@@H](O)[C@H](O)[C@@]4(C(=O)OC)OC[C@]32[C@@H]14
inactive: dose: 1.0 mg/kg/injection, schedule: Q01DX005 (ip), vehicle: Klucel (hydroxypropylcellulose) (HPC) 105 % of control | dose: 2.0 mg/kg/injection, schedule: Q01DX005 (ip), vehicle: Klucel (hydroxypropylcellulose) (HPC) 105 % of control | dose: 4.0 mg/kg/injection, schedule: Q01DX005 (ip), vehicle: Klucel (hydroxypropylcellulose) (HPC) 102 % of control and 108 % of control | dose: 8.0 mg/kg/injection, schedule: Q01DX005 (ip), vehicle: Klucel (hydroxypropylcellulose) (HPC) 102 % of control | dose: 16.0 mg/kg/injection, schedule: Q01DX005 (ip), vehicle: Klucel (hydroxypropylcellulose) (HPC) 101 % of control | dose: 125.0 micrograms/kg/injection, schedule: Q01DX005 (ip), vehicle: Klucel (hydroxypropylcellulose) (HPC) 103 % of control | dose: 250.0 micrograms/kg/injection, schedule: Q01DX005 (ip), vehicle: Klucel (hydroxypropylcellulose) (HPC) 95 % of control | dose: 500.0 micrograms/kg/injection, schedule: Q01DX005 (ip), vehicle: Klucel (hydroxypropylcellulose) (HPC) 95 % of control | dose: 1000.0 micrograms/kg/injection, schedule: Q01DX005 (ip), vehicle: Klucel (hydroxypropylcellulose) (HPC) 99 % of control

c1ccc2cc(-c3cc(-c4cc(-c5ccc6ccccc6c5)on4)no3)ccc2c1
inactive: dose: 60.0 mg/kg/injection, schedule: Q01DX005 (ip), vehicle: Klucel + Tween-80 100 % of control | dose: 120.0 mg/kg/injection, schedule: Q01DX005 (ip), vehicle: Klucel + Tween-80 95 % of control | dose: 240.0 mg/kg/injection, schedule: Q01DX005 (ip), vehicle: Klucel + Tween-80 91 % of control

CCCCCCCCCCNCCS
inactive: dose: 5.0 mg/kg/injection, schedule: Q01DX009 (ip), vehicle: saline 91 % of control | dose: 10.0 mg/kg/injection, schedule: Q01DX009 (ip), vehicle: saline 91 % of control | dose: 20.0 mg/kg/injection, schedule: Q01DX009 (ip), vehicle: saline 95 % of control

C#CCOc1ccc(Cl)cc1[N+](=O)[O-]
inactive: dose: 50.0 mg/kg/injection, schedule: Q01DX009 (ip), vehicle: Klucel (hydroxypropylcellulose) (HPC) 100 % of control | dose: 100.0 mg/kg/injection, schedule: Q01DX009 (ip), vehicle: Klucel (hydroxypropylcellulose) (HPC) 99 % of control | dose: 200.0 mg/kg/injection, schedule: Q01DX009 (ip), vehicle: Klucel (hydroxypropylcellulose) (HPC) 104 % of control

O=[n+]1c2ccccc2n([O-])c2ccccc21.[Cl][Ni][Cl]
inactive: dose: 6.25 mg/kg/injection, schedule: Q04DX003 (ip), vehicle: saline with Tween-80 102 % of control and 94 % of control | dose: 12.5 mg/kg/injection, schedule: Q04DX003 (ip), vehicle: saline with Tween-80 111 % of control and 121 % of control | dose: 25.0 mg/kg/injection, schedule: Q04DX003 (ip), vehicle: saline with Tween-80 115 % of control and 121 % of control | [1] 114 % of control

C=CC(=NC(C)C)Nc1ccccc1
inactive: dose: 1.56 mg/kg/injection, schedule: Q01DX009 (ip), vehicle: saline 112 % of control | dose: 3.12 mg/kg/injection, schedule: Q01DX009 (ip), vehicle: saline 105 % of control | dose: 6.25 mg/kg/injection, schedule: Q01DX009 (ip), vehicle: saline 104 % of control and 113 % of control

c1ccc(CCc2ccnc3c2ccc2ccccc23)cc1
inactive: dose: 25.0 mg/kg/injection, schedule: Q04DX003 (ip), vehicle: Klucel (hydroxypropylcellulose) (HPC) 112 % of control | dose: 50.0 mg/kg/injection, schedule: Q04DX003 (ip), vehicle: Klucel (hydroxypropylcellulose) (HPC) 99 % of control | dose: 100.0 mg/kg/injection, schedule: Q04DX003 (ip), vehicle: Klucel (hydroxypropylcellulose) (HPC) 99 % of control

CCc1ccc2c(c1)C(O)(c1ccccc1)c1ccccc1C2(O)c1ccccc1 (stereo unspecified)
inactive: [2] 95 % of control | [3] 94 % of control | [4] 93 % of control

O=C(OC1(c2nccc3ccccc23)CCNCC1)c1ccccc1
inactive: dose: 12.5 mg/kg/injection, schedule: Q01DX005 (ip), vehicle: Klucel (hydroxypropylcellulose) (HPC) 111 % of control | dose: 25.0 mg/kg/injection, schedule: Q01DX005 (ip), vehicle: Klucel (hydroxypropylcellulose) (HPC) 109 % of control | [5] 103 % of control and 104 % of control

O=C1OCC/C1=C/OC(=O)c1ccccc1
inactive: [6] 93 % of control | [7] 99 % of control | [8] 106 % of control

O=C1CCOCCCOCCC(=O)OCCCOC(=O)CCOCCCOCCC(=O)OCCCO1
inactive: [5] 100 % of control | dose: 100.0 mg/kg/injection, schedule: Q01DX005 (ip), vehicle: Klucel (hydroxypropylcellulose) (HPC) 105 % of control

Nc1cnc2ccccn12
inactive: [2] 97 % of control | [3] 102 % of control

COP(=O)(O)OC.[V]
inactive: [1] 96 % of control | dose: 100.0 mg/kg/injection, schedule: Q04DX003 (ip), vehicle: saline with Tween-80 103 % of control and 108 % of control | dose: 200.0 mg/kg/injection, schedule: Q04DX003 (ip), vehicle: saline with Tween-80 99 % of control

c1ccc2c(NCCCCCNc3c4ccccc4nc4ccccc34)c3ccccc3nc2c1
inactive: dose: 0.63 mg/kg/injection, schedule: Q01DX009 (ip), vehicle: other 103 % of control | dose: 1.25 mg/kg/injection, schedule: Q01DX009 (ip), vehicle: other 108 % of control | dose: 2.5 mg/kg/injection, schedule: Q01DX009 (ip), vehicle: other 100 % of control | dose: 3.75 mg/kg/injection, schedule: Q01DX009 (ip), vehicle: other 112 % of control | dose: 5.0 mg/kg/injection, schedule: Q01DX009 (ip), vehicle: other 117 % of control | dose: 10.0 mg/kg/injection, schedule: Q01DX009 (ip), vehicle: other 122 % of control

COC(=O)C12CC3(C)OC1(C)OC(=O)C2(Cc1ccccc1)N3C(C)=O (stereo unspecified)
inactive: [6] 104 % of control | [7] 104 % of control | [8] 97 % of control

CC(C)(C)OC(=O)CS(=O)Nc1ccccc1O (stereo unspecified)
inactive: dose: 60.0 mg/kg/injection, schedule: Q01DX005 (ip), vehicle: Klucel (hydroxypropylcellulose) (HPC) 105 % of control | dose: 120.0 mg/kg/injection, schedule: Q01DX005 (ip), vehicle: Klucel (hydroxypropylcellulose) (HPC) 108 % of control | dose: 240.0 mg/kg/injection, schedule: Q01DX005 (ip), vehicle: Klucel (hydroxypropylcellulose) (HPC) 97 % of control

CCCCCCC(=O)/C=C/c1cc(OC)ccc1OC
inactive: dose: 12.5 mg/kg/injection, schedule: Q01DX009 (ip), vehicle: saline with Tween-80 100 % of control | dose: 25.0 mg/kg/injection, schedule: Q01DX009 (ip), vehicle: saline with Tween-80 99 % of control | [2] 99 % of control | [3] 99 % of control and 96 % of control | [4] 97 % of control

CN(Cc1ccco1)NC(=O)C(=O)NCc1ccco1
inactive: dose: 50.0 mg/kg/injection, schedule: Q01DX005 (ip), vehicle: saline with Tween-80 97 % of control | dose: 200.0 mg/kg/injection, schedule: Q01DX005 (ip), vehicle: saline with Tween-80 88 % of control

C/C(=N\NC(=O)c1ccccc1)c1cccc(/C(C)=N/NC(=O)c2ccccc2)n1.CC(=O)[O-].CC(=O)[O-].[Zn+2]
inactive: dose: 100.0 mg/kg/injection, schedule: Q01DX001 (ip), vehicle: saline with Tween-80 95 % of control | dose: 200.0 mg/kg/injection, schedule: Q01DX001 (ip), vehicle: saline with Tween-80 104 % of control | dose: 400.0 mg/kg/injection, schedule: Q01DX001 (ip), vehicle: saline with Tween-80 100 % of control

COC(=O)c1cc(-c2ccccc2)[nH]c(=O)c1C#N
inactive: dose: 60.0 mg/kg/injection, schedule: Q01DX005 (ip), vehicle: saline 100 % of control | dose: 120.0 mg/kg/injection, schedule: Q01DX005 (ip), vehicle: saline 100 % of control
